{"source": "patent US8058507B2", "about": "“HOPM1 mediated disease resistance to Pseudomonas syringae in Arabidopsis” (priority 2007, dated 2011)", "experiment_in_all_cases": "BFA treatment of bacteria-infiltrated detached leaves: bacterial multiplication and disease symptoms", "assay_type_in_all_cases": "in vivo, Pseudomonas syringae", "key": {"Pst DC3000": {"tested_on": "Pst DC3000", "settings": "Col-0 gl1 plants treated with water or BFA (36 μM)", "protocol": "(§1) A standard enumeration procedure involves pathogen inoculation, using any one of described methods, supra, followed by assaying bacterial populations present within host tissues at regular intervals. The population present within the tissue was calculated based on the dilution factor divided by the amount of tissue present in each sample. Plotting log (culturable bacterial number/cm^2 leaf tissue) against time (usually in days) after pathogen inoculation produced an unfitted curve, i.e. growth curve. For a review of methods, see, Katagiri et al., in The Arabidopsis Book, Somerville, Meyerowitz, Eds. (American Society of Plant Biologists, Rockville, Md., 2002), website://dx.doi.org/10.1199/tab.0039; herein incorporated by reference.\n(§2) Leaves were harvested and surface sterilized as follows: 1) whole leaves were removed from a host plant and gently mixed in a 70% ethanol solution for 1 minute. Leaves were blotted briefly on paper towels then rinsed in sterile distilled water for 1 minute, then blotted dry on paper towels. Leaf disks were excised from leaves with a 0.5 cm^2 or smaller cork borer, depending on the size of the sample leaves; 2) leaf disks from the leaves of 2 or more independent replicate plants were pooled for a single tissue sample and placed in a 1.5-mL microfuge tube with 100 μL sterile distilled water, the amount of leaf tissue per tube was recorded as leaf surface area. Three or more samples were harvested for each time point. Steps 1 and 2 were repeated for each sample; 3) Tissue samples were ground with a microfuge tube plastic pestle, by hand or by using a small hand-held electric drill. […] The number of serial dilutions necessary to get countable colonies were determined for each sample, however dilutions to 10^−7 were usually sufficient for any bacterial strain; 7) The samples were plated on the appropriate medium (e.g., Low salt Luria Bertani) supplemented with the necessary antibiotics to select for the specific inoculated bacterial strain. Plating was done in the traditional way (100 μL of a single sample was spread on a single plate) or several 10 μL aliquots of the 1:10 serial dilutions were spotted on to a single plate and allowed to dry onto the surface; and 8) Plates were placed at 30° C. for approximately 2 days with a cfu value determined for each dilution of each sample. […]\n(§3) Leaves were infiltrated with 1×10^6 cfu/ml of bacteria, detached, and placed in microtiter wells with petioles immersed in the 36 μM BFA (Sigma Co.) solution. […] Bacterial populations and disease symptoms were determined on day 0 and day three."}, "hrcC mutant": {"tested_on": "hrcC mutant", "settings": "Col-0 gl1 plants treated with water or BFA (36 μM)", "protocol": "as §1, §2, §3"}, "Pst DC3000 ΔCEL mutant": {"tested_on": "Pst DC3000 ΔCEL mutant", "protocol": "as §1, §2, §3"}}, "data": [{"smiles": "C[C@H]1CCC/C=C/[C@@H]2C[C@H](O)C[C@H]2[C@H](O)/C=C/C(=O)O1", "note": "[BFA, Brefeldin A]", "values": [{"measurement": "multiplication or disease symptoms", "setting": "Pst DC3000", "value": "no significant differences"}, {"measurement": "multiplication or disease symptoms", "setting": "hrcC mutant", "value": "no significant differences"}, {"measurement": "virulence (both multiplication and disease symptoms)", "setting": "Pst DC3000 ΔCEL mutant; 36 μM BFA, wild-type Col-0 gl1 plants, day three", "value": "significantly enhanced"}, {"measurement": "restoration of the virulence of the ΔCEL mutant, compared with AtMIN7 KO plants", "setting": "Pst DC3000 ΔCEL mutant; BFA-treated leaves", "value": "greater than that in the AtMIN7 KO plants"}]}]}
